Where two headings read alike, the source gives them in different places.
Tested on: patients with acute coronary syndromes undergoing PCI
Conditions: for IDR / MI / Mortality/MI/IDR / Mortality/Q-wave MI/IDR / Mortality/Q-wave MI/Stent thrombosis / Q-wave MI / Stent thrombosis / All-cause mortality: 30 days; for Angiographic complications (site reported): Abrupt vessel closure / Angiographic complications (site reported): Acute stent thrombosis / Angiographic complications (site reported): Need for urgent CABG / Angiographic complications (site reported): New thrombus or suspected thrombus / Angiographic complications (site reported): Threatened abrupt closure / Angiographic complications (site reported): Unsuccessful procedure: index PCI

With COC(=O)[C@H](c1ccccc1Cl)N1CCc2sccc2C1 [Clopidogrel, clopidogrel, reference compound] the IDR (ITT With STEMI) was 15 (3.0) no. (%), the MI (ITT With STEMI) was 17 (3.4) no. (%) and the Mortality/MI/IDR (ITT With STEMI) was 41 (8.2) no. (%). The “Mortality/Q-wave MI/IDR” value (ITT With STEMI) was 31 (6.2) no. (%), the “Mortality/Q-wave MI/Stent thrombosis” value (ITT With STEMI) was 26 (5.2) no. (%) and the “Q-wave MI” value (ITT With STEMI) was 0 (0.0) no. (%). For the same molecule, the Stent thrombosis (ITT With STEMI) was 10 (2.0) no. (%), the All-cause mortality (ITT Without STEMI) was 31 (0.8) no. (%) and the IDR (ITT Without STEMI) was 54 (1.4) no. (%). The MI (ITT Without STEMI) was 276 (7.1) no. (%), the Mortality/MI/IDR (ITT Without STEMI) was 332 (8.6) no. (%) and the “Mortality/Q-wave MI/IDR” value (ITT Without STEMI) was 88 (2.3) no. (%). The “Mortality/Q-wave MI/Stent thrombosis” value (ITT Without STEMI) was 56 (1.4) no. (%), the “Q-wave MI” value (ITT Without STEMI) was 15 (0.4) no. (%) and the Stent thrombosis (ITT Without STEMI) was 20 (0.5) no. (%). For the same molecule, the All-cause mortality (MITT) was 38 (0.9) no. (%), the IDR (MITT) was 66 (1.5) no. (%) and the MI (MITT) was 292 (6.8) no. (%). For the same molecule, the Mortality/MI/IDR (MITT) was 360 (8.4) no. (%), the “Mortality/Q-wave MI/IDR” value (MITT) was 107 (2.5) no. (%) and the “Mortality/Q-wave MI/Stent thrombosis” value (MITT) was 73 (1.7) no. (%). For the same molecule, the “Q-wave MI” value (MITT) was 15 (0.4) no. (%), the Stent thrombosis (MITT) was 30 (0.7) no. (%) and the All-cause mortality (MITT With STEMI) was 11 (2.5) no. (%). For the same molecule, the IDR (MITT With STEMI) was 14 (3.2) no. (%), the MI (MITT With STEMI) was 16 (3.6) no. (%) and the Mortality/MI/IDR (MITT With STEMI) was 34 (7.7) no. (%). The “Mortality/Q-wave MI/IDR” value (MITT With STEMI) was 25 (5.6) no. (%), the “Mortality/Q-wave MI/Stent thrombosis” value (MITT With STEMI) was 21 (4.7) no. (%) and the “Q-wave MI” value (MITT With STEMI) was 0 (0.0) no. (%). The Stent thrombosis (MITT With STEMI) was 10 (2.3) no. (%), the All-cause mortality (MITT Without STEMI) was 27 (0.7) no. (%) and the IDR (MITT Without STEMI) was 52 (1.4) no. (%). For the same molecule, the MI (MITT Without STEMI) was 276 (7.2) no. (%), the Mortality/MI/IDR (MITT Without STEMI) was 326 (8.5) no. (%) and the “Mortality/Q-wave MI/IDR” value (MITT Without STEMI) was 82 (2.1) no. (%). For the same molecule, the “Mortality/Q-wave MI/Stent thrombosis” value (MITT Without STEMI) was 52 (1.4) no. (%), the “Q-wave MI” value (MITT Without STEMI) was 15 (0.4) no. (%) and the Stent thrombosis (MITT Without STEMI) was 20 (0.5) no. (%). The All-cause mortality (Safety population) was 41 (0.9) no. (%), the IDR (Safety population) was 67 (1.6) no. (%) and the MI (Safety population) was 293 (6.8) no. (%). The Mortality/MI/IDR (Safety population) was 365 (8.5) no. (%), the “Mortality/Q-wave MI/IDR” value (Safety population) was 111 (2.6) no. (%) and the “Mortality/Q-wave MI/Stent thrombosis” value (Safety population) was 76 (1.8) no. (%). For the same molecule, the “Q-wave MI” value (Safety population) was 15 (0.3) no. (%), the Stent thrombosis (Safety population) was 30 (0.7) no. (%) and the “Angiographic complications (site reported): Abrupt vessel closure” value (ITT) was 22 (0.5). For the same molecule, the “Angiographic complications (site reported): Acute stent thrombosis” value (ITT) was 5 (0.1), the “Angiographic complications (site reported): Need for urgent CABG” value (“Angiographic complications … for urgent CABG” below) (ITT) was 7 (0.2) and the “Angiographic complications (site reported): New thrombus or suspected thrombus” value (ITT) was 23 (0.5). For the same molecule, the “Angiographic complications (site reported): Threatened abrupt closure” value (ITT) was 12 (0.3), the “Angiographic complications (site reported): Unsuccessful procedure” value (ITT) was 103 (2.4) and the “Angiographic complications (site reported): Abrupt vessel closure” value (ITT With STEMI) was 3 (0.7). The “Angiographic complications (site reported): Acute stent thrombosis” value (ITT With STEMI) was 0 (0.0), the “Angiographic complications … for urgent CABG” value (ITT With STEMI) was 0 (0.0) and the “Angiographic complications (site reported): New thrombus or suspected thrombus” value (ITT With STEMI) was 7 (1.5). For the same molecule, the “Angiographic complications (site reported): Threatened abrupt closure” value (ITT With STEMI) was 2 (0.4), the “Angiographic complications (site reported): Unsuccessful procedure” value (ITT With STEMI) was 11 (2.4) and the “Angiographic complications (site reported): Abrupt vessel closure” value (ITT Without STEMI) was 19 (0.5). The “Angiographic complications (site reported): Acute stent thrombosis” value (ITT Without STEMI) was 5 (0.1), the “Angiographic complications … for urgent CABG” value (ITT Without STEMI) was 7 (0.2) and the “Angiographic complications (site reported): New thrombus or suspected thrombus” value (ITT Without STEMI) was 16 (0.4). The “Angiographic complications (site reported): Threatened abrupt closure” value (ITT Without STEMI) was 10 (0.3), the “Angiographic complications (site reported): Unsuccessful procedure” value (ITT Without STEMI) was 92 (2.4) and the “Angiographic complications (site reported): Abrupt vessel closure” value (MITT) was 22 (0.5). For the same molecule, the “Angiographic complications (site reported): Acute stent thrombosis” value (MITT) was 5 (0.1), the “Angiographic complications … for urgent CABG” value (MITT) was 6 (0.1) and the “Angiographic complications (site reported): New thrombus or suspected thrombus” value (MITT) was 22 (0.5). For the same molecule, the “Angiographic complications (site reported): Threatened abrupt closure” value (MITT) was 12 (0.3), the “Angiographic complications (site reported): Unsuccessful procedure” value (MITT) was 103 (2.4) and the “Angiographic complications (site reported): Abrupt vessel closure” value (MITT NSTEMI) was 19 (0.5). For the same molecule, the “Angiographic complications (site reported): Acute stent thrombosis” value (MITT NSTEMI) was 5 (0.1), the “Angiographic complications … for urgent CABG” value (MITT NSTEMI) was 6 (0.2) and the “Angiographic complications (site reported): New thrombus or suspected thrombus” value (MITT NSTEMI) was 16 (0.4). The “Angiographic complications (site reported): Threatened abrupt closure” value (MITT NSTEMI) was 10 (0.3), the “Angiographic complications (site reported): Unsuccessful procedure” value (MITT NSTEMI) was 92 (2.4) and the “Angiographic complications (site reported): Abrupt vessel closure” value (Safety population) was 22 (0.5). For the same molecule, the “Angiographic complications (site reported): Acute stent thrombosis” value (Safety population) was 5 (0.1), the “Angiographic complications … for urgent CABG” value (Safety population) was 6 (0.1) and the “Angiographic complications (site reported): New thrombus or suspected thrombus” value (Safety population) was 22 (0.5). For the same molecule, the “Angiographic complications (site reported): Threatened abrupt closure” value (Safety population) was 12 (0.3) and the “Angiographic complications (site reported): Unsuccessful procedure” value (Safety population) was 103 (2.4).
